Assays:
[1] = system: TM cells; assay: Intracellular [Cl] of TM cells; format: cell-based; conditions: niflumic acid 100 μM
[2] = target: T1, Na—K—Cl co-transporter (Homo sapiens, UniProt P55011); assay: Na—K—Cl co-transport measured as bumetamide-sensitive K influx (86Rb tracer) in human TM cell monolayers; format: cell-based; conditions: human TM cells
T1 construct: endogenous in cells; host or cells: cultured human trabecular meshwork (TM) cells, normal or glaucomatous donors
T1 sequence (P55011 1-1212): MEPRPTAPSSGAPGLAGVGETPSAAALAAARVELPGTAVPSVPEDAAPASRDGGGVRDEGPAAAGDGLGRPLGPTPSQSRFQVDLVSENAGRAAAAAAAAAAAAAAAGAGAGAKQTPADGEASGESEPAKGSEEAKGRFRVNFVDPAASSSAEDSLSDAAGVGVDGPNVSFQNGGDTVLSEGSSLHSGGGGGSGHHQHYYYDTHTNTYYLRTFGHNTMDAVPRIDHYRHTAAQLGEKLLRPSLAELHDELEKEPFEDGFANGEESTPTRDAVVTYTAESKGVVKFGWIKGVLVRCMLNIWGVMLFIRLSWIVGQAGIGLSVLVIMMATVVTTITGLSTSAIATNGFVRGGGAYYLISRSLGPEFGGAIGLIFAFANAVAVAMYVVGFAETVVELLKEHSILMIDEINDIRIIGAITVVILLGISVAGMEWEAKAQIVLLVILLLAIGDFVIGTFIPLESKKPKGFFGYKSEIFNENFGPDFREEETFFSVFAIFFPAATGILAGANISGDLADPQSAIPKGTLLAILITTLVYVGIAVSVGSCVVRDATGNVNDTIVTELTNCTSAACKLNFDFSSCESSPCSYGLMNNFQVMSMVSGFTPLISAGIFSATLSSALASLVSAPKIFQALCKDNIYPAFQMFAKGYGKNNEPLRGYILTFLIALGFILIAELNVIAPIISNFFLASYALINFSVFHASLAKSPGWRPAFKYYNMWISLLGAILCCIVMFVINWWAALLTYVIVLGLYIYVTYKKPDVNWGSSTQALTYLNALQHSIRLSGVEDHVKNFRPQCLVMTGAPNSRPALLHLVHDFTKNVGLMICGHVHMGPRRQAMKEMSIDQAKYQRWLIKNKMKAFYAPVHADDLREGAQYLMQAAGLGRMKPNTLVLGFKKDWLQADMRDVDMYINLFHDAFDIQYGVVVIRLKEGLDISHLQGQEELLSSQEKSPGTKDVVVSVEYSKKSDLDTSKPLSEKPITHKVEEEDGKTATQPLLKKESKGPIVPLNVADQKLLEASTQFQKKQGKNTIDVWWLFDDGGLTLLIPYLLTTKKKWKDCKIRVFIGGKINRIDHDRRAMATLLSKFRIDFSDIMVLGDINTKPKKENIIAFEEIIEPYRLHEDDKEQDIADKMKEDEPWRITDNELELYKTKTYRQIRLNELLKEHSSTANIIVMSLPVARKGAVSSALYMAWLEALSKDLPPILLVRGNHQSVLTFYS
Experimental: Na—K—Cl co-transport was measured as ouabain-insensitive, bumetamide-sensitive potassium influx, using ^86Rb as a tracer for potassium. […] The assay medium also contained ^86Rb (1 μCi/ml) (Dupont New England Nuclear, Boston, Mass.). The assay was terminated by rinsing the wells with ice-cold isotonic MgCl2, then extracting the contents with 0.2% sodium dodecyl sulfate (SDS), and determining the amount of radioactive contents by liquid scintillation. Osmolarities of all preincubation and assay media were verified by osmometry (Model 3W2, Advanced Instruments, Norwood, Mass.).
The cells were pretreated with Hepes-buffered minimal essential medium (MEM) ±10 μM bumetamide ±1 mM ouabain for 5 min, then assayed for 5 min in the same media plus ^86Rb. […] Data are means ±SEM, n=12.
Na—K—Cl co-transport activity of glaucomatous human TM cells was assessed as ouabain-insensitive, bumetamide-sensitive K influx, using ^86Rb as a tracer for K, as described previously. TM cells were preincubated for 5 minutes in a Hepes-buffered MEM containing 0 or 10 μM bumetamide in the presence of 1 mM ouabain, followed by a 5 minute assay in media of identical composition except that they also contained ^86Rb. […] Data are mean values ±SEM in seven normal TM cultures (donor age range, 38-68 years, n=12 in each cell culture) and in seven glaucomatous cultures (donor age range 41-75 years, n=7 in each cell culture).
Human TM cells were equilibrated in Hepes-buffered MEM for 30 minutes and then pretreated for 5 minutes in media containing 1 mM ouabain, 10 or 0 μM bumetamide, and 0.3 μM to 1 mM niflumic acid (NA). Cells were then assayed for bumetamide-sensitive K influx for 5 minutes in media identical to the pretreatment media but also containing ^86Rb (1 μCi/ml). […] Dashed line indicates control level of Na—K—Cl co-transport. Data are means ±SEM of at least 4 determinations from 3 experiments.

K influx value versus 0 mM NA control ([2]; niflumic acid 0.1 μM): not significantly different
Na—K—Cl co-transporter activity ([2]; niflumic acid 0.3 μM to 100 μM): significantly stimulate
SMILES: O=C(O)c1cccnc1Nc1cccc(C(F)(F)F)c1 [niflumic acid]
intracellular [Cl] of the TM cells [1]: significantly reduced
